How the values were obtained:
Assay in all cases: relative viability (nuclei count vs DMSO), 5 days (fraction); higher = more cells survive
EPLC-272H = system: EPLC-272H
Outline: (§1)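 Dosing by pin tool came one day after lung cancer cell lines were seeded in 1536-well plates, using either one drug or a fixed anchor-drug dose plus five library-drug doses (not always all listed) in √10 steps. After 5 days, nuclei were counted on 4× images. Relative viability is treated-well nuclei count divided by vehicle-well nuclei count, and values are medians of duplicate plates.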

LCLC-97TM1 = system: LCLC-97TM1
Outline: as §1

RERF-LC-KJ = system: RERF-LC-KJ
Outline: as §1

NCI-H1915 = system: NCI-H1915
Outline: as §1

NCI-H661 = system: NCI-H661
Outline: as §1

PC-14 = system: PC-14
Outline: as §1

NCI-H1666 = system: NCI-H1666
Outline: as §1

HCC-827 = system: HCC-827
Outline: as §1

NCI-H647 = system: NCI-H647
Outline: as §1

H3255 = system: H3255
Outline: as §1

LC-2-ad = system: LC-2-ad
Outline: as §1

NCI-H23 = system: NCI-H23
Outline: as §1

How did the relative viability (EPLC-272H; first compound 0.04 µM) turn out when `COc1cc(N2CCC(C(N)=O)CC2)ccc1Nc1nc(N)c(Cl)c(Nc2ccccc2S(=O)(=O)C(C)C)n1` [HG-5-88-01] + Cc1cc(Nc2cc(N3CCN(C)CC3)nc(Sc3ccc(NC(=O)C4CC4)cc3)n2)n[nH]1 [Tozasertib] (partner 0.1 µM) was run?
Its relative viability is 0.257.

What about the relative viability (EPLC-272H; first compound 0.1265 µM) of the same compound?
Its relative viability is 0.301.

What about the relative viability (EPLC-272H; first compound 0.4 µM) of the same compound?
Its relative viability is 0.323.

And the relative viability (EPLC-272H; first compound 1.265 µM)?
The relative viability was 0.141.

What about the relative viability (EPLC-272H; first compound 4 µM) of the same compound?
Its relative viability is 0.063.

And the relative viability (LCLC-97TM1; first compound 0.04 µM)?
The relative viability was 0.215.

What about the relative viability (LCLC-97TM1; first compound 0.1265 µM) of the same compound?
The relative viability was 0.205.

What about the relative viability (LCLC-97TM1; first compound 0.4 µM) of the same compound?
Its relative viability is 0.226.

What about the relative viability (LCLC-97TM1; first compound 1.265 µM) of the same compound?
The relative viability was 0.148.

What about the relative viability (LCLC-97TM1; first compound 4 µM) of the same compound?
Its relative viability is 0.0909.

And the relative viability (RERF-LC-KJ; first compound 0.04 µM)?
The relative viability was 0.58.

And the relative viability (RERF-LC-KJ; first compound 0.1265 µM)?
Its relative viability is 0.509.

What about the relative viability (RERF-LC-KJ; first compound 0.4 µM) of the same compound?
The relative viability was 0.436.

What about the relative viability (RERF-LC-KJ; first compound 1.265 µM) of the same compound?
Its relative viability is 0.373.

And the relative viability (RERF-LC-KJ; first compound 4 µM)?
Its relative viability is 0.174.

What about the relative viability (NCI-H1915; first compound 0.04 µM) of the same compound?
The relative viability was 0.402.

And the relative viability (NCI-H1915; first compound 0.1265 µM)?
The relative viability was 0.436.

And the relative viability (NCI-H1915; first compound 0.4 µM)?
Its relative viability is 0.453.

What about the relative viability (NCI-H1915; first compound 1.265 µM) of the same compound?
Its relative viability is 0.429.

And the relative viability (NCI-H1915; first compound 4 µM)?
Its relative viability is 0.339.

What about the relative viability (NCI-H661; first compound 0.04 µM) of the same compound?
Its relative viability is 0.354.

What about the relative viability (NCI-H661; first compound 0.1265 µM) of the same compound?
The relative viability was 0.338.

And the relative viability (NCI-H661; first compound 0.4 µM)?
Its relative viability is 0.333.

What about the relative viability (NCI-H661; first compound 1.265 µM) of the same compound?
The relative viability was 0.397.

What about the relative viability (NCI-H661; first compound 4 µM) of the same compound?
The relative viability was 0.377.

What about the relative viability (PC-14; first compound 0.04 µM) of the same compound?
The relative viability was 0.617.

And the relative viability (PC-14; first compound 0.1265 µM)?
Its relative viability is 0.645.

What about the relative viability (PC-14; first compound 0.4 µM) of the same compound?
Its relative viability is 0.602.

And the relative viability (PC-14; first compound 1.265 µM)?
Its relative viability is 0.228.

And the relative viability (PC-14; first compound 4 µM)?
The relative viability was 0.257.

What about the relative viability (NCI-H1666; first compound 0.04 µM) of the same compound?
The relative viability was 0.577.

What about the relative viability (NCI-H1666; first compound 0.1265 µM) of the same compound?
Its relative viability is 0.603.

What about the relative viability (NCI-H1666; first compound 0.4 µM) of the same compound?
Its relative viability is 0.556.

What about the relative viability (NCI-H1666; first compound 1.265 µM) of the same compound?
Its relative viability is 0.498.

And the relative viability (NCI-H1666; first compound 4 µM)?
The relative viability was 0.346.

What about the relative viability (HCC-827; first compound 0.04 µM) of the same compound?
Its relative viability is 0.475.

What about the relative viability (HCC-827; first compound 0.1265 µM) of the same compound?
Its relative viability is 0.439.

And the relative viability (HCC-827; first compound 0.4 µM)?
The relative viability was 0.401.

And the relative viability (HCC-827; first compound 1.265 µM)?
The relative viability was 0.346.

And the relative viability (HCC-827; first compound 4 µM)?
Its relative viability is 0.263.

And the relative viability (NCI-H647; first compound 0.04 µM)?
The relative viability was 0.236.

What about the relative viability (NCI-H647; first compound 0.1265 µM) of the same compound?
Its relative viability is 0.403.

And the relative viability (NCI-H647; first compound 0.4 µM)?
Its relative viability is 0.309.

What about the relative viability (NCI-H647; first compound 1.265 µM) of the same compound?
The relative viability was 0.203.

And the relative viability (NCI-H647; first compound 4 µM)?
Its relative viability is 0.216.

And the relative viability (H3255; first compound 0.04 µM)?
The relative viability was 0.71.

And the relative viability (H3255; first compound 0.1265 µM)?
The relative viability was 0.791.

What about the relative viability (H3255; first compound 0.4 µM) of the same compound?
Its relative viability is 0.616.

What about the relative viability (H3255; first compound 4 µM) of the same compound?
The relative viability was 0.731.

What about the relative viability (LC-2-ad; first compound 0.04 µM) of the same compound?
The relative viability was 0.505.

What about the relative viability (LC-2-ad; first compound 0.1265 µM) of the same compound?
Its relative viability is 0.517.

And the relative viability (LC-2-ad; first compound 0.4 µM)?
Its relative viability is 0.579.

And the relative viability (LC-2-ad; first compound 1.265 µM)?
Its relative viability is 0.299.

What about the relative viability (LC-2-ad; first compound 4 µM) of the same compound?
Its relative viability is 0.255.

And the relative viability (NCI-H23; first compound 0.04 µM)?
The relative viability was 0.337.

What about the relative viability (NCI-H23; first compound 0.1265 µM) of the same compound?
The relative viability was 0.388.

And the relative viability (NCI-H23; first compound 0.4 µM)?
The relative viability was 0.32.

What about the relative viability (NCI-H23; first compound 1.265 µM) of the same compound?
Its relative viability is 0.284.

What about the relative viability (NCI-H23; first compound 4 µM) of the same compound?
Its relative viability is 0.251.

— the supplement of paper PMC10307832
